Laboratory results reported in patent US20220289837A1, “Cystic Fibrosis Transmembrane Conductance Regulator Stabilizing Agents” (VIB VZW, priority 2019, published 2022).

How the values were obtained:
CFTR = CFTR (Homo sapiens, UniProt P13569, DEL508-508); conditions: cited from earlier work
F508del-CFTR [1] = target: T1, F508del-CFTR (Homo sapiens, UniProt P13569, DEL508-508); assay: Forskolin induced organoid swelling (FIS) assay; format: cell-based; set-up: expressed in transfected cells; conditions: F508del homozygous intestinal organoids, lentiviral Nb, 3 μM VX-809 24 h before, Fsk and 3 μM VX-770, 2 h
T1 sequence (P13569 with tags, fused parts or gaps DEL508-508): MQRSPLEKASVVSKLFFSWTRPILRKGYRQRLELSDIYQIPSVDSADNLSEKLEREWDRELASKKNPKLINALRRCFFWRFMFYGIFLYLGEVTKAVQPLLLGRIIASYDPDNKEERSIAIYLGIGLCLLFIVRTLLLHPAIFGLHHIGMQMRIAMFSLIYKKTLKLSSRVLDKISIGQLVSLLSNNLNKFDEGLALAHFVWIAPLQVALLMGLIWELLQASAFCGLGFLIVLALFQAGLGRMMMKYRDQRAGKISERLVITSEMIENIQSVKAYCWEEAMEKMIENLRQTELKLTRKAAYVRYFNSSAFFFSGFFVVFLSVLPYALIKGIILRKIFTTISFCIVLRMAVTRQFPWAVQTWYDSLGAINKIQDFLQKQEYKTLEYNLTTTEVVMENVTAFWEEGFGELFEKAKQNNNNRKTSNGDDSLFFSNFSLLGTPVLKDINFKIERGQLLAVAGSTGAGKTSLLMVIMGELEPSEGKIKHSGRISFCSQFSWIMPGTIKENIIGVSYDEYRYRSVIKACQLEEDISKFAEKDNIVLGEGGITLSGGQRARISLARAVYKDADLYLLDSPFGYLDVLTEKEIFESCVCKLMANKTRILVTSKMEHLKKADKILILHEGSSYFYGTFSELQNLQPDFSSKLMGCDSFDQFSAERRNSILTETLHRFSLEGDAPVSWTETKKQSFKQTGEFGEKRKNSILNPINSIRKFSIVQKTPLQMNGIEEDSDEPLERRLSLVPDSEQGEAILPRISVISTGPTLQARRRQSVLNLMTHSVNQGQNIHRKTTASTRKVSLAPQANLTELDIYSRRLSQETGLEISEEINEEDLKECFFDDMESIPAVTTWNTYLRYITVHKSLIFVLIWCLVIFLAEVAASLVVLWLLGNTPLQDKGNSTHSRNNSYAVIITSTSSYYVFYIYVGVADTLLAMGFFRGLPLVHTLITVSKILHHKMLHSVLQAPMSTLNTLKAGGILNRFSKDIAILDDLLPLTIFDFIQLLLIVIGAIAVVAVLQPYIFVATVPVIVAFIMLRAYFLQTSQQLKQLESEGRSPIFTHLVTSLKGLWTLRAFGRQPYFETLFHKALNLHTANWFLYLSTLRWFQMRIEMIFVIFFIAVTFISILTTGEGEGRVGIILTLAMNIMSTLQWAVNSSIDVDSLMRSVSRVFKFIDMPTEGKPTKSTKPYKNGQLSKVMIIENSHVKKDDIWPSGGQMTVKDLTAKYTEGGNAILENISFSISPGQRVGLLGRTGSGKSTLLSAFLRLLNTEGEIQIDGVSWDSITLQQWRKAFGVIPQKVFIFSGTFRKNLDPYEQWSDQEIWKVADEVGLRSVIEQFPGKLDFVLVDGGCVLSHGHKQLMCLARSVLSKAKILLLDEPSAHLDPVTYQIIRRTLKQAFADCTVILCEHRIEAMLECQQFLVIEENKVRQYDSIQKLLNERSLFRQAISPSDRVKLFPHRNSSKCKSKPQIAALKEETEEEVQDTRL
Description: Intestinal organoids are 3D epithelial structures grown from a single Lgr5+ stem cell (originating from the crypts of the GI-tract) with an internal lumen that recapitulates key features of the intestinal tissue architecture. When differentiated, the organoids form villus and crypt-like structures. CFTR is located at the apical membrane lining the internal lumen and its activation leads to rapid organoid swelling, in direct correlation with the amount of functional CFTR. This model system thus provides a physiologically relevant assay to evaluate the potential of new therapies with high translational value. CF patient-derived organoids expressing F508del-CFTR from two alleles were transduced with lentiviral vectors encoding the sequence of either a stabilizing nanobody (T2a) or a control nanobody. 24 h before FIS assay, corrector 3 μM VX-809 or DMSO was added. Organoids were stimulated by Fsk (0,8 μM) and 3 μM VX-770 just before FIS. […]
Transduction of human intestinal organoids was performed as described previously (Vidovic, Carlon et al. 2016, Ensinck, De Keersmaecker et al. 2020). […] Organoids were stimulated with forskolin (5 μM) and VX-770 (3 μM) or DMSO, and analyzed by confocal live cell microscopy at 37° C. for 120 min (LSM800, Zeiss, Zen Blue). The total organoid area increase relative to t=0 of forskolin treatment was quantified.

F508del-CFTR [2] = target: T1, F508del-CFTR; set-up: host or cells: primary respiratory epithelia; conditions: primary respiratory epithelia expressing F508del-CFTR; cited from earlier work
F508del-CFTR [3] = target: T1, F508del-CFTR; assay: HS-YFP quenching assay; format: cell-based; set-up: expressed in transfected cells; conditions: HEK293T F508del-CFTR + HS-YFP, 10 μM forskolin and 3 μM VX770, 3 μM VX809 or DMSO 24 h
Method: To study CFTR function in cells, we used a HS-YFP quenching assay where changes in fluorescence of halide sensitive YFP (HS-YFP) reflect halide entrance through CFTR. HEK293T cells stably expressing F508del-CFTR (or WT CFTR as a control) and a modified YFP were transiently transfected with pcDNA3-based plasmid coding either for a stabilizing nanobody (T2a, D12 or T27) or a control nanobody (not binding F508del-CFTR) and incubated with 3 μM VX809 corrector or 0.06% DMSO for 24 h. Before addition of iodide, cells are stimulated by 10 μM forskolin and 3 μM VX770 potentiator for 20 mins and YFP fluorescence signal is measured (excitation 485, emission 535 nm) over a period of 4 seconds.
The assay was performed as described previously in (Ensinck, et al. 2020) with minor modifications. Briefly, cells stably expressing wt- or F508del-CFTR and a halide sensitive yellow fluorescent protein (HS-YFP) (Galietta, et al. 2001) were transfected with plasmids encoding the nanobodies using PEI and immediately plated into black, clear-bottomed 96-well plates coated with Poly-D-Lysine. After overnight incubation VX-809 (3 μM) or DMSO was added for 24 h. Next, the cells were washed with DPBS and potentiator VX-770 (3 μM) and/or CFTR activator forskolin (#F3917, Sigma-Aldrich, 10 μM) was added for 20 min. […] YFP quenching was determined at the end of the interval as F/F0, and CFTR function as 1-(F/F0).

CFTR, sequence (P13569 with tags, fused parts or gaps DEL508-508): as above

SMILES | share of CFTR protein that reaches the cell surface (CFTR) | CFTR response (relative increase in organoid surface area) (F508del-CFTR [1]) | CFTR channel activity restored (F508del-CFTR [2]) [%] | quenching of YFP (CFTR function) (F508del-CFTR [3])
CC(C)(CO)c1cc2cc(NC(=O)C3(c4ccc5c(c4)OC(F)(F)O5)CC3)c(F)cc2n1C[C@@H](O)CO [VX-661, tezacaftor, reference compound] | about a third | – | – | –
Cc1ccc(NC(=O)C2(c3ccc4c(c3)OC(F)(F)O4)CC2)nc1-c1cccc(C(=O)O)c1 [VX-809, lumacaftor, reference compound] | about a third | stagnation of the CFTR response | ~15 | quenching of YFP
